# Assay results: patent US20250135006A1, “AMPHIPHILIC TLR7/8 ADJUVANTS AND USES THEREOF” (Pfizer Inc., priority 2023, published 2025)
# Like-named read-outs stand apart in the source and are kept apart here.
# Assay: Lymph node localization of AMP adjuvants in female BALB/c mice (LC-MS)
# Format: in vivo
# Conditions: mouse, 2 nmol intramuscular; for concentration at 4 h: 4 h post injection; for concentration at 48 h: 48 h post injection
# Method: Test compounds were prepared at a concentration of 40 uM in phosphate-buffered saline (pH 7.4)+0.1% polysorbate 80, and 50 uL (2 nmol) of each was administered by intramuscular injection into the right hind leg muscle (gastrocnemius) of female BALB/c mice. Lymph nodes (popliteal, inguinal) were collected from 5 mice per group at 4 h and 48 h post injection, snap frozen in liquid nitrogen, and stored at −80C until analysis. Blood was also collected via cardiac puncture at 4 h and 48 h post injection and centrifuged in EDTA-coated tubes to yield plasma which was stored at −80C until analysis. AMP adjuvant concentrations in each sample were quantified by liquid chromatography-mass spectrometry (LC-MS).
# A standard curve containing the test compound was prepared in control mouse plasma before extraction with protein precipitation. Muscle samples were weighed and diluted in 4× 60:40 Isopropanol (IPA):Water. Lymph node samples were assumed to be 1 mg and were diluted 50× in […] 60:40 IPA:Water. Zirconium beads were added to tissue samples, followed by shaking in a bead beater to yield tissue homogenate. For plasma analysis, 20 ml of test sample or standard was added followed by 120 ml of acetonitrile containing internal standard (Simvastatin at 300 ng/ml). Tissue homogenate was prepared for analysis using a mixed matrix approach where test tissue samples (20 ml) were matrix matched with control plasma, and a plasma standard curve was matrixed matched with control mouse tissue. Internal standard was added as described above. Samples were vortexed for 1 min, then centrifuged at 3000 rpm for 5 min. 50 ml of supernatant was removed and transferred to a clean 96 well block, 150 ml of 0.1% formic acid in water was added, block was vortexed, centrifuged and 15 ml was injected on the LC/MS for analysis.
# An initial mobile phase composition of 5% B was ramped to 95% in 2.0 minutes, held at 95% for 0.3 minutes, and then returned to initial 5% B for 0.3 minutes re-equilibration. The total analysis time for each sample was 3 minutes.
# Data was collected on an AB Sciex API6500 (QTRAP) mass spectrometer using positive Turbo IonSpray™ electrospray ionization (ESI) and multiple reaction monitoring (MRM) mode. Typical source conditions, heated capillary temperature, gas1, gas2, and curtain gas were set at 600C, 50, 50, and 10 respectively. Transitions for Compound 1, Compound 2, and internal standard Simvastatin were m/z 1129® 923 for Compound 1, m/z 1172® 956 for Compound 2 and m/z 419® 285 for internal standard Simvastatin respectively. Data acquisition and processing was carried out with Analyst software version 1.7.
# [1] = inguinal lymph node, read-out: concentration in the inguinal lymph node
# [2] = plasma, read-out: concentration in plasma
# [3] = popliteal lymph node, read-out: concentration in the popliteal lymph node
compound,measurement,setting,value
"CCCCc1nc2c(N)nc3cc(CCCN4CCN(C(=O)CCOCCOCCOCCOCCOCCOCCOCCOCCOCCOCCOCCOCCOCCOCCOCCOCCOCCOCCOCCOCCOCCOCCOCCOCCNC(=O)CCOCCOCCOCCOCCNC(=O)CCCOc5c(C)c(C)c6c(c5C)CC[C@@](C)(CCC[C@H](C)CCC[C@H](C)CCCC(C)C)O6)CC4)ccc3c2n1CC(C)(CO)CO [Compound 2, N-{75-[4-(3-{4-amino-2-butyl-1-[3-hydroxy-2-(hydroxymethyl)-2-methylpropyl]-1H-imidazo[4,5-c]quinolin-7-yl}propyl)piperazin-1-yl]-75-oxo-3,6,9,12,15,18,21,24,27,30,33,36,39,42,45,48,51,54,57,60,63,66,69,72-tetracosaoxapentaheptacont-1-yl}-17-oxo-20-({(2R)-2,5,7,8-tetramethyl-2-[(4R,8R)-4,8,12-trimethyltridecyl]-3,4-dihydro-2H-chromen-6-yl}oxy)-4,7,10,13-tetraoxa-16-azaicosan-1-amide]",concentration at 4 h,[1],16600 ± 6920 ng/g
same,concentration at 48 h,[1],17000 ± 3320 ng/g
same,concentration at 4 h,[2],1100 ± 305 ng/mL
same,concentration at 48 h,[2],< 25 ng/mL
same,concentration at 4 h,[3],35300 ± 16800 ng/g
same,concentration at 48 h,[3],23200 ± 7820 ng/g
